Test results as given in US5763404A, “Methods for using LHRH antagonists with low histamine release” (priority 1995, dated 1998).
Like-named read-outs stand apart in the source and are kept apart here. One block for each compound: values may come before it. Starred links: 1 amine or outer side, 2 acyl side, 3 side chain; linkers in the order of their positions; H or OH if unused. Non-standard residues stand in square brackets, D forms with d. Residues, ends and D or L forms follow the SMILES beside them. No end group written: not given here. *: point of attachment. dAla(cis-4-NHCOPyz-cHex) = N[C@H](C[C@H]1CC[C@@H](NC(=O)c2cnccn2)CC1)C(=O)O; X6 = O=C(N[C@H]1CC[C@H](C[C@@H](N[*:1])C(=O)[*:2])CC1)c1ccccn1; dPhe(4-Cl) = N[C@H](Cc1ccc(Cl)cc1)C(=O)O; d2Nal = N[C@H](Cc1ccc2ccccc2c1)C(=O)O; Lys(iPr) = CC(C)NCCCC[C@H](N)C(=O)O; Orn(iPr) = CC(C)NCCC[C@H](N)C(=O)O; d3Pal = N[C@H](Cc1cccnc1)C(=O)O; Nicotinoyl = O=C(c1cccnc1)*; Picolinoyl = O=C(c1ccccn1)*; X12 = O=C(c1ccncn1)*

Key:
rats = conditions: reported in ref. 16, cited from earlier work
26 days old female rats = experiment: oral activity: serum LH and FSH after agonist [D-Qal^6]-LHRH; format: in vivo, rat; conditions: for LH: 2 hours before 10 ng agonist; for FSH / Serum LH: -2 hr, agonist 10 ng sc, +2 hours
Procedure: For the determination of duration of action, the antagonist was administered s.c. or orally to 26 days old female rats at a specific time before administration of the agonist, [D-Qal^6 ]-LHRH. The serum levels of rat luteinizing hormone (LH) and rat follicle stimulating hormone (FSH) were then measured 2 hours after the agonist administration by RIA. The oral administration was done through force-feeding with feeding tubes.

anaesthesized rats = experiment: wheal test, intradermal injection; format: in vivo, rat; parameters: Wheal (wheal response): unit not given here; conditions: for Wheal: Table I; for Wheal / Wheal Area: 10 ug peptide intradermally; for Wheal (wheal response): Table XIV and text, unit not given
Summary of the method: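 Anaesthetized rats given intradermal injection of 10 ug peptide in 100 ul saline; area of the wheal calculated from its diameter.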

rat mast cells = experiment: in vitro histamine release test; format: cell-based; conditions: for In Vitro Histamine Release ED50: rat mast cells, ± SEM
Procedure: The antiovulatory activity, AOA, in rats was determined as described by Humphries et al. (12). Antiovulation assays were performed by counting, on estrus, the number of ova shed by 4-day cycling rats after a single sc injection of the LH-RH analogue in corn oil was administered between 12 and 12:30 p.m. on […]. The control rats received 0.3 mL of the vehicle. The wheal test was performed by intradermally injecting 10 ug of peptide in 100 ul of saline into anaesthesized rats, measuring the ideally circular wheal response and calculating the area. The in vitro histamine release test was done as described by Karten et al. (4). A suspension of rat mast cells was added to increasing concentrations of peptide and the mixture was incubated for a few minutes followed by centrifugation to collect the histamine in the supernatant. A PIPES (piperazine-N,N'-bis[2-ethanesulfonic acid]) medium buffered at pH 7.4 containing NaCl 119 mM, KCl 5 mM, PIPES 25 mM, NaOH 40 mM, glucose 5.6 mM, CaCl2 1 mM, and 0.1% bovine serum albumin was used. This was designated as PIPES AC. Peptides were dissolved in double distilled H2 O at a concentration of 2 mg/ml and stored at -20° C. They were thawed just prior to testing, diluted in PIPES AC and prewarmed for five minutes at 37° C. Peptides studied were stable to heating at 56° C. for two hours, and to freezing and thawing.
Peritoneal cells were collected from male Sprague-Dawley rats weighing 200 to 250 gm and purchased from Harlan (Madison, Wis.). After euthanasia by CO2, the peritoneal cavity was washed with 50 ml PIPES AC medium containing 20 units of heparin. Following centrifugation at 200×g for eight minutes at 4° C., cells were washed again and finally resuspended to a concentration of 8 to 24×10^5 total leukocytes/ml in PIPES AC. This suspension contained approximately 5-10% mast cells. Washed cells were used immediately after collection and were prewarmed for five minutes at 37° C. prior to pipetting 0.25 ml aliquots into 12×75 mm polystyrene tubes containing 0.25 ml of diluted peptide. Mixtures were incubated for 15 minutes at 37° C. and the reaction stopped by centrifugation at 400×g for 15 minutes at 4° C. The cell supernatants were assayed for histamine content by the automated fluorometric assay procedure. See, Siraganian, R. P., "An automated continuous flow system for the extraction and fluorometric analysis of histamine." Anal. Biochem. 57:383 (1974); and Siraganian, R. P. and Hook, W. A., "Histamine release and assay methods for the study of human allergy," In Manual of Clinical Immunology, 3rd ed., N. R. Rose, H. Friedman, and J. L. Fahey (Eds.), Amer. Soc. for Microbiology, Washington (1986) p. 808.

[1] = tested on: dispersed pituitary cell culture; experiment: dispersed pituitary cell culture assay; format: cell-based

Compound: [N-Ac-D-pClPhe^1,2,D-Trp^3,D-Arg^6,D-Ala^10 ]-LHRH [VIII-25]
rats ovulated/total rats (rats; oral dose 500 ug): 9/11 | rats ovulated/total rats (rats; oral dose 1000 ug): 4/11 | rats ovulated/total rats (rats; oral dose 2000 ug): 0/11 | LH (26 days old female rats; oral 30 ug): 39 ± 6 ng/mL | LH (26 days old female rats; oral 100 ug): 26 ± 7 ng/mL | FSH (26 days old female rats; oral in water 10 μg): 1794 ± 329 ng/mL | Serum LH (26 days old female rats; oral in water 10 μg): 59 ± 11 ng/mL | FSH (26 days old female rats; oral in water 30 μg): 1470 ± 190 ng/mL | Serum LH (26 days old female rats; oral in water 30 μg): 39 ± 6 ng/mL | FSH (26 days old female rats; oral in water 100 μg): 1161 ± 277 ng/mL | Serum LH (26 days old female rats; oral in water 100 μg): 26 ± 7 ng/mL

Compound: CC(=O)N[C@H](Cc1ccc2ccccc2c1)C(=O)N[C@H](Cc1ccc(Cl)cc1)C(=O)N[C@H](Cc1cccnc1)C(=O)N[C@@H](CO)C(=O)N[C@@H](CCCCNC(=O)c1cccnc1)C(=O)N[C@H](CCCCNC(=O)c1cccnc1)C(=O)N[C@@H](CC(C)C)C(=O)N[C@@H](CCCCNC(C)C)C(=O)N1CCC[C@H]1C(=O)N[C@H](C)C(N)=O [Antide, [N-Ac-D-2-Nal^1, D-pClPhe^2, D-3-Pal^3, NicLys^5, D-NicLys^6, ILys^8, D-Ala^10]-LHRH] (Ac-[d2Nal][dPhe(4-Cl)][d3Pal]SK(Nicotinoyl)[dK](Nicotinoyl)L[Lys(iPr)]P[dA]-NH2)
Wheal (anaesthesized rats): 132.7 mm^2 /10 | Wheal (wheal response) (anaesthesized rats): 132.7 | histamine release (in words) (rat mast cells): released remarkably little histamine

Compound: [N-Ac-D-2-Nal^1,D-4-F-Phe^2,D-Trp^3,D-Arg^6 ]-LHRH
In Vitro Histamine Release ED50 (rat mast cells): 0.17 µg/mL | In Vitro Histamine Release ED50 (rat mast cells; listed as [N-Ac-D-2-Nal^1,D-pFPhe^2,D-Trp^3,D-Arg^6 ]-LHRH): about 0.17 μg/ml | In Vitro Histamine Release ED50 (rat mast cells; listed as standard compound): 0.1 to 0.2 µg/mL | ED 50 (histamine release), starred test series (rat mast cells; test series in which the standard compound had ED 50 0.46 instead of the usual 0.1-0.2): 0.46 µg/mL

Compound: CC(=O)N[C@H](Cc1ccc2ccccc2c1)C(=O)N[C@H](Cc1ccc(Cl)cc1)C(=O)N[C@H](Cc1cccnc1)C(=O)N[C@@H](CO)C(=O)N[C@@H](CCCCNC(=O)c1ccccn1)C(=O)N[C@H](CCCCNC(=O)c1ccccn1)C(=O)N[C@@H](CC(C)C)C(=O)N[C@@H](CCCCNC(C)C)C(=O)N1CCC[C@H]1C(=O)N[C@H](C)C(N)=O (Ac-[d2Nal][dPhe(4-Cl)][d3Pal]SK(Picolinoyl)[dK](Picolinoyl)L[Lys(iPr)]P[dA]-NH2)
histamine release (in words) (rat mast cells): released no more histamine than do "super agonists" of LHRH

Compound: luteinizing hormone releasing hormone (QHWSYGLRPG; ends and bridges not checked; UniProt P01148 24-33, looked up) [LHRH, natural hormone used as agonist in the pituitary cell culture assay]
FSH ([1]; LHRH 0.1 nM alone): 221 ± 18 ng/mL | RLH ([1]; LHRH 0.1 nM alone): 40 ± 7 ng/mL | FSH ([1]; LHRH 0.3 nM alone): 562 ± 48 ng/mL | RLH ([1]; LHRH 0.3 nM alone): 80 ± 1 ng/mL | FSH ([1]; LHRH 1.0 nM alone): 802 ng/mL | RLH ([1]; LHRH 1.0 nM alone): 118 ng/mL | FSH ([1]; LHRH 3.0 nM alone): 646 ± 123 ng/mL | RLH ([1]; LHRH 3.0 nM alone): 150 ± 1 ng/mL | FSH ([1]; LHRH 10.0 nM alone): 602 ± 26 ng/mL | RLH ([1]; LHRH 10.0 nM alone): 141 ± 4 ng/mL | FSH ([1]; LHRH 30.0 nM alone): 557 ± 15 ng/mL | RLH ([1]; LHRH 30.0 nM alone): 152 ± 7 ng/mL

More lines, now with the values ahead:

Wheal (wheal response) (anaesthesized rats): 122.8
Compound: CC(=O)N[C@H](Cc1ccc2ccccc2c1)C(=O)N[C@H](Cc1ccc(Cl)cc1)C(=O)N[C@H](Cc1cccnc1)C(=O)N[C@@H](CO)C(=O)N[C@@H](CCCCNC(=O)c1ccccn1)C(=O)N[C@H](C[C@H]1CC[C@@H](NC(=O)c2cnccn2)CC1)C(=O)N[C@@H](CC(C)C)C(=O)N[C@@H](CCCCNC(C)C)C(=O)N1CCC[C@H]1C(=O)N[C@H](C)C(N)=O [compound 25897] (Ac-[d2Nal][dPhe(4-Cl)][d3Pal]SK(Picolinoyl)[dAla(cis-4-NHCOPyz-cHex)]L[Lys(iPr)]P[dA]-NH2)

Wheal Area (anaesthesized rats): 130.2 ± 2.5 mm^2 /10 μg
Compound: CC(=O)N[C@H](Cc1ccc2ccccc2c1)C(=O)N[C@H](Cc1ccc(Cl)cc1)C(=O)N[C@H](Cc1cccnc1)C(=O)N[C@@H](CO)C(=O)N[C@@H](CCCCNC(=O)c1ccncn1)C(=O)N[C@H](CCCCNC(=O)c1ccncn1)C(=O)N[C@@H](CC(C)C)C(=O)N[C@@H](CCCCNC(C)C)C(=O)N1CCC[C@H]1C(=O)N[C@H](C)C(N)=O [compound 26322] (Ac-[d2Nal][dPhe(4-Cl)][d3Pal]SK(X12)[dK](X12)L[Lys(iPr)]P[dA]-NH2)

Wheal (wheal response) (anaesthesized rats): 101.6 ± 2.2
Compound: CC(=O)N[C@H](Cc1ccc2ccccc2c1)C(=O)N[C@H](Cc1ccc(Cl)cc1)C(=O)N[C@H](Cc1cccnc1)C(=O)N[C@@H](CO)C(=O)N[C@@H](CCCCNC(=O)c1ccccn1)C(=O)N[C@H](C[C@H]1CC[C@@H](NC(=O)c2cnccn2)CC1)C(=O)N[C@@H](CC(C)C)C(=O)N[C@@H](CCCNC(C)C)C(=O)N1CCC[C@H]1C(=O)N[C@H](C)C(N)=O [compound 26181] (Ac-[d2Nal][dPhe(4-Cl)][d3Pal]SK(Picolinoyl)[dAla(cis-4-NHCOPyz-cHex)]L[Orn(iPr)]P[dA]-NH2)

Wheal Area (anaesthesized rats): 101.0 ± 3.0 mm^2 /10 μg
Compound: CC(=O)N[C@H](Cc1ccc2ccccc2c1)C(=O)N[C@H](Cc1ccc(Cl)cc1)C(=O)N[C@H](Cc1cccnc1)C(=O)N[C@@H](CO)C(=O)N[C@@H](CCCCNC(=O)c1ccccn1)C(=O)N[C@H](C[C@H]1CC[C@H](NC(=O)c2ccccn2)CC1)C(=O)N[C@@H](CC(C)C)C(=O)N[C@@H](CCCCNC(C)C)C(=O)N1CCC[C@H]1C(=O)N[C@H](C)C(N)=O [IV-3] (Ac-[d2Nal][dPhe(4-Cl)][d3Pal]SK(Picolinoyl)[X6]L[Lys(iPr)]P[dA]-NH2)

Wheal (anaesthesized rats): 116 ± 3.3 mm^2 /10
Compound: CC(=O)N[C@H](Cc1ccc2ccccc2c1)C(=O)N[C@H](Cc1ccc(Cl)cc1)C(=O)N[C@H](Cc1cccnc1)C(=O)N[C@@H](CO)C(=O)N[C@@H](CCCCNC(=O)c1ccccn1)C(=O)N[C@H](CCCCNC(=O)c1cccnc1)C(=O)N[C@@H](CC(C)C)C(=O)N[C@@H](CCCCNC(C)C)C(=O)N1CCC[C@H]1C(=O)N[C@H](C)C(N)=O [compound 25510] (Ac-[d2Nal][dPhe(4-Cl)][d3Pal]SK(Picolinoyl)[dK](Nicotinoyl)L[Lys(iPr)]P[dA]-NH2)

Wheal Area (anaesthesized rats): 116.2 ± 5.5 mm^2 /10 μg
Compound: CC(=O)N[C@H](Cc1ccc2ccccc2c1)C(=O)N[C@H](Cc1cccnc1)C(=O)N[C@H](Cc1ccc(Cl)cc1)C(=O)N[C@@H](CO)C(=O)N[C@@H](CCCCNC(=O)c1ccccn1)C(=O)N[C@H](CCCCNC(=O)c1ccccn1)C(=O)N[C@@H](CC(C)C)C(=O)N[C@@H](CCCNC(C)C)C(=O)N1CCC[C@H]1C(=O)N[C@H](C)C(N)=O [compound 26364] (Ac-[d2Nal][d3Pal][dPhe(4-Cl)]SK(Picolinoyl)[dK](Picolinoyl)L[Orn(iPr)]P[dA]-NH2)

Wheal Area (anaesthesized rats): 113.2 ± 5.5 mm^2 /10 μg
Compound: CC(=O)N[C@H](Cc1ccc2ccccc2c1)C(=O)N[C@H](Cc1ccc(Cl)cc1)C(=O)N[C@H](Cc1cccnc1)C(=O)N[C@@H](CO)C(=O)N[C@@H](Cc1ccc(O)cc1)C(=O)N[C@H](CCCCNC(=O)c1ccccn1)C(=O)N[C@@H](CC(C)C)C(=O)N[C@@H](CCCNC(C)C)C(=O)N1CCC[C@H]1C(=O)N[C@H](C)C(N)=O [compound 26363] (Ac-[d2Nal][dPhe(4-Cl)][d3Pal]SY[dK](Picolinoyl)L[Orn(iPr)]P[dA]-NH2)
